For this assay, the target named is P2X7 receptor (hP2X7) (Homo sapiens (Human), UniProt Q99572). Nature of the assay: Screen Quest Fluo-8 No Wash Calcium Assay (Bz-ATP-induced Ca2+ influx, FLIPR TETRA). The class given is cell-based. As to conditions: HEK-293 cells stably transfected with P2X7 receptor, Fluo-8 calcium, Low Divalent Cation Assay Buffer. The method, then: Extracellular binding of Bz-ATP to P2X7 receptor opens the channel and allows Ca2+ influx into the cells. This Ca2+ entry was measured in HEK-293 cells stably transfected with P2X7 receptor using Screen Quest™ Fluo-8 No Wash Calcium Assay Kit (AAt Bioquest®, cat. 36316). Once inside the cell, the lipophilic blocking groups of Fluo-8 are cleaved by non-specific cell esterases, resulting in a negatively-charged fluorescent dye that stays inside cells. Its fluorescence increases upon binding to calcium. When HEK-293/P2X7 cells are stimulated with Bz-ATP, Ca2+ enters the cells and the fluorescence of Fluo-8 NW increases. The dye has an absorption spectrum compatible with excitation at 488 nm by argon laser sources and its emission wavelength is in the range of 515-575 nm.
Sequence of P2X7 receptor (hP2X7) (Q99572 whole entry): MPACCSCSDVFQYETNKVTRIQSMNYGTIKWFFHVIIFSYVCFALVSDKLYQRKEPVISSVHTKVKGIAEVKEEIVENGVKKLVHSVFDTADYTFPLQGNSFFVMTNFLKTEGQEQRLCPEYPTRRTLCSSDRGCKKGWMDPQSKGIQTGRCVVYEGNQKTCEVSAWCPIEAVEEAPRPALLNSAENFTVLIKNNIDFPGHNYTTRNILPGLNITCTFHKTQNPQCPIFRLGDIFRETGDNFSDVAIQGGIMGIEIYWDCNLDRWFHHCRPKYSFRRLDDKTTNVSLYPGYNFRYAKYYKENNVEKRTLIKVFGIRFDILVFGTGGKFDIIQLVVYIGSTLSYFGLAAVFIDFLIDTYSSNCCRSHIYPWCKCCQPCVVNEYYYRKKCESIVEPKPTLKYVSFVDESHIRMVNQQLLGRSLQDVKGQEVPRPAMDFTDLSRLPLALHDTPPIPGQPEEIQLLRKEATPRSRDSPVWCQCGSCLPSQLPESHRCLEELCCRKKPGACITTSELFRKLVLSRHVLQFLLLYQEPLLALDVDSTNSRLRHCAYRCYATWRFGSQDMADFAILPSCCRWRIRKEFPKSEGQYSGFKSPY
HEK-293 cells stably transfected with P2X7 receptor were seeded overnight in growth medium at 10,000 to 20,000 cells/well in 384-well plate. 24 hours later, the medium was removed and the cells were pre-loaded at RT for 1 hour with 20 μL/w of Fluo-8 NW. Then 10 μL/w of test compounds and reference antagonist A438079 at 3×-concentration were injected with the […] and the kinetic response over a period of five minutes was monitored.
Consider `O=C(NCC(c1cnc(C2CCC(F)(F)CC2)s1)N1CCOCC1)c1cc(-c2ncc(F)cn2)ccc1Cl` (stereo not drawn) [Compound 125, 2-chloro-N-{2-[2-(4,4-difluorocyclohexyl)-1,3-thiazol-5-yl]-2-(morpholin-4-yl)ethyl}-5-(5-fluoropyrimidin-2-yl)benzamide], for which the IC50 turned out to be 336 nM.
On to `Cc1ncsc1C(CNC(=O)c1ccc(N2CCCS2(=O)=O)cc1Cl)N1CCC(F)(F)CC1` (stereo not drawn) [Compound 114], for which the concentration for half-maximal inhibition (IC50) stood at 367 nM.
Regarding `Cc1ncsc1C(CNC(=O)c1cc(-c2ncc(F)cn2)ccc1Cl)N1CCC(Oc2ccccc2)CC1` (stereo not drawn) [Compound 73, 2-chloro-5-(5-fluoropyrimidin-2-yl)-N-[2-(4-methyl-1,3-thiazol-5-yl)-2-(4-phenoxypiperidin-1-yl)ethyl]benzamide], the concentration for half-maximal inhibition (IC50) came out at 238 nM.
For `Cc1ncsc1C(CNC(=O)c1cc(-c2ncc(F)cn2)ccc1F)N1CCOC(c2cnn(C)c2)C1` (stereo not drawn) [Compound 98], the IC50 was found to be 142 nM.
Regarding `O=C(NCC(c1cnc(C(F)(F)F)s1)N1CCC(F)(F)CC1)c1cc(-c2ncc(F)cn2)ccc1Cl` (stereo not drawn) [Compound 82], the IC50 was 737 nM.
Consider `O=C(NCC(c1cnc(C2CCC(F)(F)CC2)s1)N1CCC(F)(F)CC1)c1cc(-c2ncc(F)cn2)ccc1Cl` (stereo not drawn) [Compound 126], for which the half-inhibitory concentration (IC50) came out at 1430 nM.
As to `O=C(NCC(c1scnc1C1CC1)N1CCC(F)(F)CC1)c1c(F)cccc1Cl` (stereo not drawn) [Compound 123, 2-chloro-N-[2-(4-cyclopropyl-1,3-thiazol-5-yl)-2-(4,4-difluoropiperidin-1-yl)ethyl]-6-fluorobenzamide], the IC50 was determined as 279 nM.
For the compound `CC(C)(C)c1ncc(C(CNC(=O)c2cccc3ncccc23)N2CCC(F)(F)CC2)s1` (stereo not drawn) [Compound 124, N-[2-(2-tert-butyl-1,3-thiazol-5-yl)-2-(4,4-difluoropiperidin-1-yl)ethyl]quinoline-5-carboxamide], the IC50 was 3950 nM.
For `Cc1cccc(-c2ccc(Cl)c(C(=O)NCC(c3cnc(C)s3)N3CCC(F)(F)CC3)c2)n1` (stereo not drawn) [Compound 79, 2-chloro-N-[2-(4,4-difluoropiperidin-1-yl)-2-(2-methyl-1,3-thiazol-5-yl)ethyl]-5-(6-methylpyridin-2-yl)benzamide], the IC50 was 206 nM.
For the compound `Cc1ncsc1C(CNC(=O)c1cc(-c2ncc(F)cn2)ccc1Cl)N1CCOC(c2cnn(C)c2)C1` (stereo not drawn) [Compound 97], the IC50 came out at 139 nM.
Turning to `COc1ccc(-c2ncc(F)cn2)cc1C(=O)NCC(c1scnc1C)N1CCC(F)(F)CC1` (stereo not drawn) [Compound 71, N-[2-(4,4-difluoropiperidin-1-yl)-2-(4-methyl-1,3-thiazol-5-yl)ethyl]-5-(5-fluoropyrimidin-2-yl)-2-methoxybenzamide], the IC50 worked out at 355 nM.
As for `O=C(NCC(c1cnc(C2CC2)s1)N1CCC(F)(F)CC1)c1cc(-c2ncc(F)cn2)ccc1F` (stereo not drawn) [Compound 86, N-[2-(2-cyclopropyl-1,3-thiazol-5-yl)-2-(4,4-difluoropiperidin-1-yl)ethyl]-2-fluoro-5-(5-fluoropyrimidin-2-yl)benzamide], the IC50 worked out at 495 nM.
For `CC(C)(C)c1ncc(C(CNC(=O)c2cc(-c3ncc(F)cn3)ccc2Cl)N2CCC(F)(F)CC2)s1` (stereo not drawn) [Compound 122, N-[2-(2-tert-butyl-1,3-thiazol-5-yl)-2-(4,4-difluoropiperidin-1-yl)ethyl]-2-chloro-5-(5-fluoropyrimidin-2-yl)benzamide], the IC50 is 1060 nM.
As to `Cc1ncsc1C(CNC(=O)c1c(F)cccc1Cl)N1CCOC2(CCC2)C1` (stereo not drawn) [Compound 96, 2-chloro-6-fluoro-N-[2-(4-methyl-1,3-thiazol-5-yl)-2-{5-oxa-8-azaspiro[3.5]nonan-8-yl}ethyl]benzamide], the IC50 is 989 nM.
With `O=C(NCC(c1cnc(C2CCC(F)(F)CC2)s1)N1CCC(F)(F)CC1)c1c(F)cccc1Cl` (stereo not drawn) [Compound 117, 2-chloro-N-{2-[2-(4,4-difluorocyclohexyl)-1,3-thiazol-5-yl]-2-(4,4-difluoropiperidin-1-yl)ethyl}-6-fluorobenzamide], the IC50 amounted to 429 nM.

(Values after patent US9718812B2, “Substituted thiazole or oxazole P2X7 receptor antagonists” (Axxam S.P.A., priority 2014, dated 2017).)
